The subject of assay [1] is antigen-induced bronchoconstriction. Briefly: Antigen-induced bronchoconstriction model of guinea pig (Konzett-Rossler method). The class given is in vivo. The conditions noted are these: 2 hours after administration, ovalbumin-sensitized guinea pigs. How it is done: (Pharmacological Activity on Antigen-Induced Bronchoconstriction Model of Guinea Pig)
Guinea pigs sensitized by ovalbumin were used and orally administered with the test compound suspended in 5% gum arabic. The activity for inhibiting antigen-induced bronchoconstriction after 2 hours after administration was measured by the Konzett-Rossler method.
Each of the sensitized guinea pigs (i.e., 5-7 pigs in one group) was anesthesized by 35 mg/kg pentobarbital, a cannula was inserted into the respiratory tract and connected to an artificial respirator, a cannula was inserted into the jugular vein, and treatment was performed by 5 mg/kg suxamethonium and 5 mg/kg mepyramine. Next, the guinea pig was inhaled a nebulized ovalbumin to cause bronchoconstriction and the activity in inhibiting bronchoconstriction was found from the ratio of the amount of overflow volume to the detector to the amount of air blown volume from the artificial respirator.
As the test compound, the present Compound (I) were used, and as the control, the above compound (A) and the thromboxane synthase inhibitor ozagrel hydrochloride (OKY-046) were used.

The target in assay [2] is T1, thromboxane synthase (Rattus norvegicus, UniProt P49430).
T1 construct: The divided blood was allowed to naturally coagulate; from tissue; host or cells: whole blood of male SD rats, allowed to clot
T1 sequence (P49430 1-533): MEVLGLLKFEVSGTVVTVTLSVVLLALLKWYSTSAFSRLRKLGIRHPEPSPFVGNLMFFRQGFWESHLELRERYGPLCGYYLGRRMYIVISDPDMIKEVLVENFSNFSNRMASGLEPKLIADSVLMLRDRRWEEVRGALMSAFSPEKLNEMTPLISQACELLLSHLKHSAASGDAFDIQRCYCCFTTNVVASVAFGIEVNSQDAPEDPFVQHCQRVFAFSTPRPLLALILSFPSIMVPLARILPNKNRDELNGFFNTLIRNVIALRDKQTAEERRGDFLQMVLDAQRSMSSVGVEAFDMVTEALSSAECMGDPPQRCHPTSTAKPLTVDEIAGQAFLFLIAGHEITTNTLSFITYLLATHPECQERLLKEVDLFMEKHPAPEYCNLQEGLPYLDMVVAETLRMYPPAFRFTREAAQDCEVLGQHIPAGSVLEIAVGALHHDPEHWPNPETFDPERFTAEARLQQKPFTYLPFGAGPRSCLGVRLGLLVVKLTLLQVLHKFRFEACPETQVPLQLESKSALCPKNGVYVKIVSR
As to the kind of experiment: Thromboxane synthase inhibitory activity ex vivo (thromboxane B2 in serum after oral administration). Conditions: 1 h, SD male rats, one hour before blood sampling, read-out: TxSI ED50 (50% inhibitory amount). The source says:
(§1) (Measurement of Lipoxygenase Inhibitory Activity and Thromboxane Synthase Inhibitory Activity in Ex Vivo)
(§2) For the test animals, SD male rats were used. These were made to fast from the day before the test. The test drug was suspended in 0.5% sodium carboxymethylcellulose and orally administered one hour before the blood was taken. The blood was taken from the abdominal aorta and divided for the measurement of the thromboxane synthase inhibitory activity and the 5-lipoxygenase inhibitory activity.
On the other hand, the thromboxane synthase activity was shown using as an indicator the amount of production of the thromboxane A2 stable metabolite thromboxane B2. The divided blood was allowed to naturally coagulate (25° C., 90 minutes) and then the serum was centrifuged (3000 rpm, 20 minutes, 4° C.) and the amount of thromboxane B2 in the serum was measured by the EIA method.

For assay [3], the target named is T2, 5-lipoxygenase (Rattus norvegicus, UniProt P12527).
T2 construct: from tissue; host or cells: whole blood of male SD rats
T2 sequence (P12527 1-673): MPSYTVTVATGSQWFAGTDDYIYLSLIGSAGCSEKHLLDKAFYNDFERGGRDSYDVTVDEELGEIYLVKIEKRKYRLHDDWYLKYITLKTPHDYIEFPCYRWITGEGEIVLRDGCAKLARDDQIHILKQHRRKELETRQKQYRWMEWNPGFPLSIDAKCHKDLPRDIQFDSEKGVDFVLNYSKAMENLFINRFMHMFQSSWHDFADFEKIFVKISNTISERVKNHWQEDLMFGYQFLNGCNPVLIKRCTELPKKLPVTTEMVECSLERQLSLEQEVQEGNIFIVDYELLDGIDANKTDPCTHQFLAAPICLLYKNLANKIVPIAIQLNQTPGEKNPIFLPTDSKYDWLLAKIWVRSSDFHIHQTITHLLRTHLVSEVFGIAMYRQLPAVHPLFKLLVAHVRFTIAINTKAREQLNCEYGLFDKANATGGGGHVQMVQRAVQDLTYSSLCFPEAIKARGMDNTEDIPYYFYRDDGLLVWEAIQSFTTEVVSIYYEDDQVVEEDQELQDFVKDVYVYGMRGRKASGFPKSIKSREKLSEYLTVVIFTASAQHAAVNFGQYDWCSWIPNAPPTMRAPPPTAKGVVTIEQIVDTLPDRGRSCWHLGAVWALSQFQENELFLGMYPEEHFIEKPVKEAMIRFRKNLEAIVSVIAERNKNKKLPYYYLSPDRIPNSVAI
As to the kind of experiment: Lipoxygenase inhibitory activity ex vivo (leukotriene B4 in blood after oral administration). The conditions noted are these: 1 h, SD male rats, one hour before blood sampling, read-out: LTBI ED50 (50% inhibitory amount).
Excerpt: as §1, §2
The 5-lipoxygenase activity was shown using as an indicator the amount of production of leukotriene B4. 50 μM calcium ionophor (A-23187) was added to the divided blood to start the reaction (37° C., 30 minutes), and 1 mM Indomethacin, 1 mM Phenidone, and 0.1 mM EGTA were added to stop the reaction. The plasma was centrifuged (3000 rpm, 20 minutes, 4° C.) and the leukotriene B4 in the plasma was measured by the EIA method.

The target of assay [4] is T3, thromboxane synthase (Homo sapiens, UniProt P24557).
T3 construct: Human platelet microsomes were used; from tissue; host or cells: human platelet microsomes
T3 sequence (P24557 1-533): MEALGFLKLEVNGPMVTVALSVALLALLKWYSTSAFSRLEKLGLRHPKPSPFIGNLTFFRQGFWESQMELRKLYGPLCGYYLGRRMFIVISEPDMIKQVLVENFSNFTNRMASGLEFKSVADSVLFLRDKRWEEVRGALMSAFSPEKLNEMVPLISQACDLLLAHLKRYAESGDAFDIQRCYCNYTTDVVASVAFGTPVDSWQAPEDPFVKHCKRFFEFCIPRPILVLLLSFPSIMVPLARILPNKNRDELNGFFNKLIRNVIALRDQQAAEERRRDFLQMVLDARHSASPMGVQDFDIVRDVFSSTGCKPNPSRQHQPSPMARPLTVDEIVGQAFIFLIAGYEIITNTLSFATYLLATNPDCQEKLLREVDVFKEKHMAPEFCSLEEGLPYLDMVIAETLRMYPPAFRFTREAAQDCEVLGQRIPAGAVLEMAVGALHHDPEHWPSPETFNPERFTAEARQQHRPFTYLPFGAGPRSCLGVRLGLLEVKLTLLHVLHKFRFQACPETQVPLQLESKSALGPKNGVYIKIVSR
Briefly: Test of thromboxane synthase inhibitory activity in vitro (thromboxane B2 production, platelet microsomes). The format is biochemical. Conditions: prostaglandin H2 substrate, read-out: TxSI IC50 (inhibition of production of thromboxane B2). How it is done: (Test of Thromboxane Synthase Inhibitory Activity in In Vitro)
Human platelet microsomes were used and a test performed using as an indicator the amount of production of the thromboxane A2 stable metabolite thromboxane B2. A buffer solution (20 mM tris-HCl buffer solution, 1 mM EDTA, pH 7.5) containing human platelet microsomes (50 μg protein/ml) and the test compound (final concentration of 10^-6 M) was stirred, then incubated at 0° C. for 30 minutes, followed by adding prostaglandin H2 (100 ng/2 μl ). This was made acidic to stop the reaction, then neutralized with 1M Tris-base, then centrifuged at 3000 rpm for 20 minutes. The amount of the thromboxane B2 in the supernatant was measured by the EIA method (Cayman Co. kit).
(§3) As the test compound, the compound (I) was used for the test.

The target in assay [5] is T4, lipoxygenase (Rattus norvegicus, UniProt P12527).
T4 construct: the peritoneal cavities were lavaged and the polymorphonuclear leukocytes were recovered; endogenous in cells; host or cells: peritoneal polymorphonuclear leukocytes of male SD rats (casein-elicited)
T4 sequence (P12527 1-673): T2 sequence (P12527 1-673)
Briefly: Test of lipoxygenase inhibitory activity in vitro (leukotriene B4 production in polymorphonuclear leukocytes). The class given is cell-based. Conditions: calcium ionophore A-23187, read-out: LTBI IC50 (inhibition of the production of leukotriene B4). As for the experimental part: (Test of Lipoxygenase Inhibitory Activity in In Vitro)
Using rat polymorphonuclear leukocytes, a test was conducted using as an indicator the amount of production of leukotriene B4. SD male rats (Japan Clea) were intraperitoneally administered with 12% sodium casein. After 16 hours, the peritoneal cavities were lavaged and the polymorphonuclear leukocytes were recovered. The polymorphonuclear leukocytes thus obtained were suspended in a phosphate buffer (137 mM NaCl, 3 mM KCl, 8 mM Na2 HPO4, 2 mM KH2 PO4) (2.5×10^5 cells/0.4 ml), then the test compound (final concentration 10^-5 M) was added and incubation performed for 10 minutes at 37° C. then a calcium solution (10 mM CaCl2, 0.86% NaCl) 0.1 ml was added and incubation performed for 5 minutes, then 1.25 μl of calcium ionophore (20 μM, A-23187) was added and the reaction started. Five minutes after the addition, 250 μl of methanol was added to stop the reaction. After the reaction was stopped, the result was centrifuged for 20 minutes (4° C., 3000 rpm), then the amount of leukotriene B4 in the supernatant was measured by the EIA method (Cayman Co. kit).
as §3

Molecules are shown by their SMILES. Where a name gives a salt, the structure may show the parent alone. Some results are limits rather than exact numbers.

In general, ED50 refers to the dose that gives a 50% effect, or the effect in half of the subjects. The IC50 is the midpoint of a concentration-inhibition curve.

Regarding `O=C(O)/C=C/c1ccc(Cn2ccnc2)cc1` [OKY-046, ozagrel hydrochloride], the “Suppression rate of respiratory constriction” value (“Suppression rate” below) in assay [1] (100 mg/kg oral) is recorded as 42%.

`NC(=O)N(O)CC1=Cc2cc(Oc3ccccc3)ccc2OC1` [Compound (A)]: the “Suppression rate” value in assay [1] (100 mg/kg oral) was 26%. For the same compound, the values for the ED50 in assay [2] and in assay [3] were above 30 mg/kg and 1.7 mg/kg, respectively.

Regarding `NC(=O)N(O)CC1=Cc2cc(Cc3cccnc3)ccc2OC1` [Compound (I), N-hydroxy-N-[6-(3-pyridylmethyl)-2H-1-benzopyran-3-ylmethyl]urea], in assay [1] (50 mg/kg oral), the “Suppression rate” value stood at 75%. In addition, the results for the IC50 in assay [4] and in assay [5] were 300 nM and 200 nM, respectively. Further, the ED50 in assay [2] came to 1.5 mg/kg; in assay [3], 1.7 mg/kg.

As to `NC(=O)N(O)CC1=Cc2cc(OCc3cccnc3)ccc2OC1` [(B)], the 50% effective dose (ED50) was above 10 mg/kg in assay [2] and 9 mg/kg in assay [3].
